# Measurements: patent publication US10266549B2, “ULK1 inhibitors and methods using same” (SALK INSTITUTE FOR BIOLOGICAL STUDIES, priority 2014, dated 2019)
# Target: ULK1 (Homo sapiens (Human), UniProt O75385)
# Test: ULK1 inhibition assay (Table 1)
# Type: biochemical
# Settings: * = tested as a mixture of regioisomers
# Chain of ULK1 (O75385 whole entry, species assumed): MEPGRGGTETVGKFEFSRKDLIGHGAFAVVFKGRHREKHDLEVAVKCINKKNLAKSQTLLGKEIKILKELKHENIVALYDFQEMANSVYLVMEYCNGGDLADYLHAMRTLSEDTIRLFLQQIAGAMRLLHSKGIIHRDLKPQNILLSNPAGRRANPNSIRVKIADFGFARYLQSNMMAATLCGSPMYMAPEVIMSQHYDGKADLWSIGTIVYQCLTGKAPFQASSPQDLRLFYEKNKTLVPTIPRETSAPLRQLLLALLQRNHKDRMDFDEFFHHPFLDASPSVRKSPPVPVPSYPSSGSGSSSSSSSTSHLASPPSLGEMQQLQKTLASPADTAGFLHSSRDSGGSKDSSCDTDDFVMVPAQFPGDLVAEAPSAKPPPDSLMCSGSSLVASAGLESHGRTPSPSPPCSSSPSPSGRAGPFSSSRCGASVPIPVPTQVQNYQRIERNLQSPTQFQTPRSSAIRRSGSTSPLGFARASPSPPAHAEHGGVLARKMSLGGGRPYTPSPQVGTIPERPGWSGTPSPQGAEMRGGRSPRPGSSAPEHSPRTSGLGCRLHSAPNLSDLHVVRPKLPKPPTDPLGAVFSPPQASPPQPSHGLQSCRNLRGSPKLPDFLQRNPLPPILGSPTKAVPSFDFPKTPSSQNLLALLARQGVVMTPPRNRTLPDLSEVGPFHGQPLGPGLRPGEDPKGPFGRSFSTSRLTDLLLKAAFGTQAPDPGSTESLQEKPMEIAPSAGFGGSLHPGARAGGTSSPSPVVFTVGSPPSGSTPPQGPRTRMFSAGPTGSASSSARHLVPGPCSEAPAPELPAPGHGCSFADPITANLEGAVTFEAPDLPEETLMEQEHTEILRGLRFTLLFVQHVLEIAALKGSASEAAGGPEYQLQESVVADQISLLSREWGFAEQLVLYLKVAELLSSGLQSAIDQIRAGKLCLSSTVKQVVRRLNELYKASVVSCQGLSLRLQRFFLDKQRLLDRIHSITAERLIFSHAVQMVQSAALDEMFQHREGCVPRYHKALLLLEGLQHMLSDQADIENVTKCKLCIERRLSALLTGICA
row,SMILES,IC50 [nM]
1,"FC(F)(F)c1cnc(NC2CC2)nc1NC1CC1 [compound 169, N^2,N^4-dicyclopropyl-5-(trifluoromethyl)pyrimidine-2,4-diamine]",> 2000
2,"COc1cccc(Nc2nc(Nc3ccc4c(c3)OCCO4)ncc2C(F)(F)F)c1 [compound 133, N^2-(2,3-dihydrobenzo[b][1,4]dioxin-6-yl)-N^4-(3-methoxyphenyl)-5-(trifluoromethyl)pyrimidine-2,4-diamine]",< 200
3,"CNC(=O)c1cccc(Nc2nc(Nc3ccc4c(c3)CCC(=O)N4)ncc2C(F)(F)F)c1 [compound 128, N-methyl-3-((2-((2-oxo-1,2,3,4-tetrahydroquinolin-6-yl)amino)-5-(trifluoromethyl)pyrimidin-4-yl)amino)benzamide]",< 200
4,"CNC(=O)c1ccccc1Nc1nc(Nc2ccc3[nH]ccc3c2)ncc1Br [compound 23, 2-(2-(1H-indol-5-ylamino)-5-bromopyrimidin-4-ylamino)-N-methylbenzamide]",< 200
5,"CNC(=O)c1ccccc1Nc1nc(Nc2cc(OC)c(OC)c(OC)c2)ncc1CCc1ccccc1 [compound 87, N-Methyl-2-((5-phenethyl-2-((3,4,5-trimethoxyphenyl)amino)pyrimidin-4-yl)amino)benzamide]",200 to 2000
6,"CNC(=O)c1ccccc1Oc1nc(Nc2cc(OC)ccc2C)ncc1C(F)(F)F [compound 101, 2-((2-((5-methoxy-2-methylphenyl)amino)-5-(trifluoromethyl)pyrimidin-4-yl)oxy)-N-methylbenzamide]",> 2000
7,"COc1cc(N2CCOCC2)ccc1Nc1ncc(C(F)(F)F)c(Nc2ccc3c(c2)CCC(=O)N3)n1 [123b, 6-((2-((2-methoxy-4-morpholinophenyl)amino)-5-(trifluoromethyl)pyrimidin-4-yl)amino)-3,4-dihydroquinolin-2(1H)-one]",< 200
8,"COc1ccc(Nc2nc(Nc3ccc4c(c3)CCC(=O)N4)ncc2Br)cn1 [compound 156, 6-((5-bromo-4-((6-methoxypyridin-3-yl)amino)pyrimidin-2-yl)amino)-3,4-dihydroquinolin-2(1H)-one]",< 200
9,"CNC(=O)c1ccccc1Nc1nc(Nc2ccc3c(c2)CCC(=O)N3)ncc1-c1ccccc1 [compound 89, N-Methyl-2-((2-((2-oxo-1,2,3,4-tetrahydroquinolin-6-yl)amino)-5-phenylpyrimidin-4-yl)amino)benzamide]",< 200
10,"Fc1c(Nc2nc(Nc3ccc4c(c3)OCO4)ncc2C(F)(F)F)cccc1C(F)(F)F [141b, N^2-(benzo[d][1,3]dioxol-5-yl)-N^4-(2-fluoro-3-(trifluoromethyl)phenyl)-5-(trifluoromethyl)pyrimidine-2,4-diamine]",< 200
11,"COc1cnc(Nc2ccc3c(c2)CCC(=O)N3)nc1Nc1ccc2c(c1)CCC(=O)N2 [compound 135, 6,6′-((5-methoxypyrimidine-2,4-diyl)bis(azanediyl))bis(3,4-dihydroquinolin-2(1H)-one)]",> 2000
12,"O=C1CCc2cc(Nc3ncc(C(F)(F)F)c(Nc4nccs4)n3)ccc2N1 [compound 58, 6-(4-(Thiazol-2-ylamino)-5-(trifluoromethyl)pyrimidin-2-ylamino)-3,4-dihydroquinolin-2(1H)-one]",> 2000
13,"FC(F)(F)c1cnc(NC2CCC2)nc1Nc1cnc2[nH]ccc2c1 [161b, N^2-cyclobutyl-N^4-(1H-pyrrolo[2,3-b]pyridin-5-yl)-5-(trifluoromethyl)pyrimidine-2,4-diamine]",< 200
14,"O=C1CCc2cc(Nc3nc(NC4CC4)ncc3C(F)(F)F)ccc2N1 [131b, 6-((2-(cyclopropylamino)-5-(trifluoromethyl)pyrimidin-4-yl)amino)-3,4-dihydroquinolin-2(1H)-one]",< 200
15,"FC(F)(F)c1cnc(NCC2CC2)nc1Nc1ccc2c(c1)OCO2 [167a, N^4-(benzo[d][1,3]dioxol-5-yl)-N^2-(cyclopropylmethyl)-5-(trifluoromethyl)pyrimidine-2,4-diamine]",< 200
